Key:
[1] = Inhibition of Penicillium decumbens alpha-L-rhamnosidase using p-nitrophenyl-glycoside as substrate by spectrophotometric method
Prunus dulcis [2] = assay: Inhibition of almond beta-glucosidase at 1000 uM using p-nitrophenyl-glycoside as substrate by spectrophotometric method
Bos taurus [3] = organism: Bos taurus; assay: Inhibition of bovine liver beta-glucosidase at 1000 uM using p-nitrophenyl-glycoside as substrate by spectrophotometric method
[4] = Inhibition of human lysosomal beta-glucosidase using 4-methylumbelliferyl-beta-D-glucopyranoside as substrate preincubated for 45 mins followed by substrate addition measured after 30 mins by fluorescence spectrophotometric method
Aspergillus niger [5] = assay: Inhibition of Aspergillus niger amyloglucosidase assessed as D-glucose level at 1000 uM using maltose as substrate measured after 10 to 30 mins
Oryza sativa [6] = assay: Inhibition of rice alpha-glucosidase at 1000 uM using p-nitrophenyl-glycoside as substrate by spectrophotometric method
Rattus norvegicus [7] = organism: Rattus norvegicus; assay: Inhibition of rat intestinal maltase assessed as D-glucose level at 1000 uM using maltose as substrate measured after 10 to 30 mins
[8] = biological target: T1, Beta-galactosidase (Bos taurus) (UniProt Q58D55); assay: Inhibition of bovine liver beta-galactosidase at 1000 uM using p-nitrophenyl-glycoside as substrate by spectrophotometric method
T1 sequence (whole entry): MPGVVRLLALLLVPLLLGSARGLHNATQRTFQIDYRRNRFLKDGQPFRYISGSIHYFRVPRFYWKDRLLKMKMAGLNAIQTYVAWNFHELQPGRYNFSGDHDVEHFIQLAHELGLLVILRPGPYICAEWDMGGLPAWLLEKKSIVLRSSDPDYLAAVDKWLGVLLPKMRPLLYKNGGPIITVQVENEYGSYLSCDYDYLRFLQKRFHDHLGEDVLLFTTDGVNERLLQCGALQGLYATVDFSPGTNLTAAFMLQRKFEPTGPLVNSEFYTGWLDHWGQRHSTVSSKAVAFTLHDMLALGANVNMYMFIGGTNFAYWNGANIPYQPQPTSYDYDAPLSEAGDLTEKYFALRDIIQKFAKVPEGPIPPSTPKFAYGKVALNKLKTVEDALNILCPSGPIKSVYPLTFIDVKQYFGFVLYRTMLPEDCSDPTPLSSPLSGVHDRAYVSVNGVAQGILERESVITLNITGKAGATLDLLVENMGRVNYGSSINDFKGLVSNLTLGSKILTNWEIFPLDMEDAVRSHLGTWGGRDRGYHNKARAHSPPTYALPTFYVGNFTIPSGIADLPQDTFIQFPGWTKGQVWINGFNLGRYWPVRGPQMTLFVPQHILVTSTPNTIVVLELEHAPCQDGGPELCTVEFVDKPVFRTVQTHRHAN

[9] = biological target: T2, Tissue alpha-L-fucosidase (Bos taurus) (UniProt Q2KIM0); assay: Inhibition of bovine kidney alpha-L-fucosidase at 1000 uM using p-nitrophenyl-glycoside as substrate by spectrophotometric method
T2 sequence (whole entry): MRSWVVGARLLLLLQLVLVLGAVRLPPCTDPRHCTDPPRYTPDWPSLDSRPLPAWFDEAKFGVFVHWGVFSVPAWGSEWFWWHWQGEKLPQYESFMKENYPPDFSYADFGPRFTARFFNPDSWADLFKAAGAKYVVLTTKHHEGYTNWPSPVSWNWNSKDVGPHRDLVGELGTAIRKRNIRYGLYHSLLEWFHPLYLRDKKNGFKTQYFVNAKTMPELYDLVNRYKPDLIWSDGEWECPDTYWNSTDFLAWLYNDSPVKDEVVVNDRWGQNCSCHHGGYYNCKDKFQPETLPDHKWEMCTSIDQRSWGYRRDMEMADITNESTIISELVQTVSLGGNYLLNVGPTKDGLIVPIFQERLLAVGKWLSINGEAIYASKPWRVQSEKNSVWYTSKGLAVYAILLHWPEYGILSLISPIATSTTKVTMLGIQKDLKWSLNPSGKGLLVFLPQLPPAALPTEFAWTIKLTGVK

[10] = biological target: T3, Uncharacterized protein (Sus scrofa) (UniProt I3LIR5); assay: Inhibition of porcine kidney trehalase assessed as D-glucose level at 1000 uM using maltose as substrate measured after 10 to 30 mins
T3 sequence (whole entry): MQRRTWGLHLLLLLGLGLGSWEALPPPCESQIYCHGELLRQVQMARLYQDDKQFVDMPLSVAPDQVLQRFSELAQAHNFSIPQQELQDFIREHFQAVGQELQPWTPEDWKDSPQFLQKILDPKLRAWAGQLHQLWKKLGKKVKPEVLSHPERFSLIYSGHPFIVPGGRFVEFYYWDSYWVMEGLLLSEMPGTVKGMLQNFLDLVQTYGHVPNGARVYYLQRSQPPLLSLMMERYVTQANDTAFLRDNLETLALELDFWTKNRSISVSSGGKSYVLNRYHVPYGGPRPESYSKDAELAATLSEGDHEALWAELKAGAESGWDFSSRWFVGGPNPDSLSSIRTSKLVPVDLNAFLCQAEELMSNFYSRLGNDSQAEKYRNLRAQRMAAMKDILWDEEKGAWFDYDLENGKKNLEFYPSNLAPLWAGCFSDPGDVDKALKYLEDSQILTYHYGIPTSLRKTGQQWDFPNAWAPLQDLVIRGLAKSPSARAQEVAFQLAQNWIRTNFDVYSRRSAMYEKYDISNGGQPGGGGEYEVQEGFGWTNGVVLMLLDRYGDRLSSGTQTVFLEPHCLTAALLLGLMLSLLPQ

Escherichia coli [11] = assay: Inhibition of Escherichia coli beta-glucuronidase at 1000 uM using p-nitrophenyl-glycoside as substrate by spectrophotometric method
Prunus dulcis [12] = assay: Inhibition of almond beta-glucosidase at 100 uM using p-nitrophenyl-glycoside as substrate by spectrophotometric method
[13] = Inhibition of bovine liver beta-glucosidase using p-nitrophenyl-glycoside as substrate by spectrophotometric method; set-up: species or system Bos taurus
Oryza sativa [14] = assay: Inhibition of rice alpha-glucosidase at 100 uM using p-nitrophenyl-glycoside as substrate by spectrophotometric method
Rattus norvegicus [15] = organism: Rattus norvegicus; assay: Inhibition of rat intestinal maltase assessed as D-glucose level at 100 uM using maltose as substrate measured after 10 to 30 mins
Beta-galactosidase = biological target: T4, Beta-galactosidase (Bos taurus, UniProt Q58D55); assay: Inhibition of bovine liver beta-galactosidase using p-nitrophenyl-glycoside as substrate by spectrophotometric method
T4 sequence (Q58D55 whole entry): T1 sequence (whole entry)

Aspergillus niger [16] = assay: Inhibition of Aspergillus niger amyloglucosidase assessed as D-glucose level at 100 uM using maltose as substrate measured after 10 to 30 mins
[17] = biological target: T2, Tissue alpha-L-fucosidase (Bos taurus); assay: Inhibition of bovine kidney alpha-L-fucosidase at 100 uM using p-nitrophenyl-glycoside as substrate by spectrophotometric method
[18] = biological target: T3, Uncharacterized protein (Sus scrofa); assay: Inhibition of porcine kidney trehalase assessed as D-glucose level at 100 uM using maltose as substrate measured after 10 to 30 mins
Escherichia coli [19] = assay: Inhibition of Escherichia coli beta-glucuronidase at 100 uM using p-nitrophenyl-glycoside as substrate by spectrophotometric method
[20] = Inhibition of Penicillium decumbens alpha-L-rhamnosidase
Bos taurus [21] = organism: Bos taurus; assay: Inhibition of bovine liver beta-glucosidase at 100 uM using p-nitrophenyl-glycoside as substrate by spectrophotometric method
Homo sapiens [22] = organism: Homo sapiens; assay: Inhibition of human lysosomal beta-glucosidase at 100 uM using 4-methylumbelliferyl-beta-D-glucopyranoside as substrate preincubated for 45 mins followed by substrate addition measured after 30 mins by fluorescence spectrophotometric method
Penicillium decumbens = assay: Inhibition of Penicillium decumbens alpha-L-rhamnosidase at 1000 uM using p-nitrophenyl-glycoside as substrate by spectrophotometric method
Homo sapiens [23] = organism: Homo sapiens; assay: Inhibition of human lysosomal beta-glucosidase at 1000 uM using 4-methylumbelliferyl-beta-D-glucopyranoside as substrate preincubated for 45 mins followed by substrate addition measured after 30 mins by fluorescence spectrophotometric method

For CCCCCC/N=C1/SC[C@@H]2[C@@H](O)[C@H](O)[C@@H](CO)N12, which IC50 [1] is on record?
The IC50 was 494 µM.

What about the inhibition (Prunus dulcis [2]) of the same molecule?
Its inhibition is < 50%.

And the inhibition (Bos taurus [3])?
Its inhibition is < 50%.

What about the IC50 [4] of the same molecule?
Its IC50 is 16 µM.

And the inhibition (Aspergillus niger [5])?
Its inhibition is < 50%.

And the inhibition (Oryza sativa [6])?
Its inhibition is < 50%.

And the inhibition (Rattus norvegicus [7])?
Its inhibition is < 50%.

And the inhibition [8]?
Its inhibition is < 50%.

And the inhibition [9]?
Its inhibition is < 50%.

What about the inhibition [10] of the same molecule?
The inhibition was < 50%.

What about the inhibition (Escherichia coli [11]) of the same molecule?
The inhibition was < 50%.

Which results are given for CCCCCCCCCCCC/N=C1/SC[C@@H]2[C@@H](O)[C@H](O)[C@@H](CO)N12?
IC50 [1]: 67 µM; inhibition (Prunus dulcis [12]): < 50%; IC50 [13]: 63 µM; IC50 [4]: 1 µM; inhibition (Oryza sativa [14]): < 50%; inhibition (Rattus norvegicus [15]): < 50%; IC50 (Beta-galactosidase): 32 µM; inhibition (Aspergillus niger [16]): < 50%; inhibition [17]: < 50%; inhibition [18]: < 50%; inhibition (Escherichia coli [19]): < 50%

For OC[C@H]1[C@H](O)[C@@H](O)[C@@H]2CS/C(=N/Cc3cc(Cl)cc(Cl)c3)N12, which IC50 [1] is on record?
Its IC50 is 0.7 µM.

Which IC50 [1] does the source give for OC[C@H]1[C@H](O)[C@@H](O)[C@@H]2CS/C(=N/Cc3ccccc3Cl)N12 here?
The IC50 was 2.5 µM.

Which IC50 [20] does the source give for C[C@@H]1C[C@H](O)[C@H]2[C@@H](O)[C@@H](O)CN2C1 here?
The IC50 was 0.032 to 0.034 µM.

Which IC50 [20] does the source give for C[C@H]1N[C@@H](CO)[C@H](O)[C@H](O)[C@H]1O here?
The IC50 was 850 µM.

Which IC50 [1] does the source give for CCCCCCCCCC/N=C1/SC[C@H]2[C@H](O)[C@@H](O)[C@H](CO)N12 here?
Its IC50 is 0.77 µM.

What about the inhibition (Prunus dulcis [12]) of the same molecule?
The inhibition was < 50%.

And the inhibition (Bos taurus [21])?
Its inhibition is < 50%.

What about the inhibition (Oryza sativa [14]) of the same molecule?
Its inhibition is < 50%.

What about the inhibition (Rattus norvegicus [15]) of the same molecule?
Its inhibition is < 50%.

What about the IC50 (Beta-galactosidase) of the same molecule?
Its IC50 is 36 µM.

What about the inhibition (Aspergillus niger [16]) of the same molecule?
Its inhibition is < 50%.

And the inhibition [17]?
Its inhibition is < 50%.

What about the inhibition [18] of the same molecule?
The inhibition was < 50%.

And the inhibition (Homo sapiens [22])?
Its inhibition is < 50%.

What about the inhibition (Escherichia coli [19]) of the same molecule?
The inhibition was < 50%.

For CCCCCCCCNC(=S)N1[C@H](CO)[C@@H](O)[C@H](O)[C@H]1CO, which inhibition (Penicillium decumbens) is on record?
Its inhibition is < 50%.

And the inhibition (Prunus dulcis [2])?
The inhibition was < 50%.

And the IC50 [13]?
The IC50 was 689 µM.

What about the IC50 [4] of the same molecule?
The IC50 was 12 µM.

What about the inhibition (Aspergillus niger [5]) of the same molecule?
Its inhibition is < 50%.

What about the inhibition (Oryza sativa [6]) of the same molecule?
Its inhibition is < 50%.

And the inhibition (Rattus norvegicus [7])?
The inhibition was < 50%.

What about the IC50 (Beta-galactosidase) of the same molecule?
The IC50 was 414 µM.

And the inhibition [9]?
The inhibition was < 50%.

What about the inhibition [10] of the same molecule?
The inhibition was < 50%.

What about the inhibition (Escherichia coli [11]) of the same molecule?
The inhibition was < 50%.

For COc1ccc(C/N=C2/SC[C@H]3[C@H](O)[C@@H](O)[C@H](CO)N23)cc1, which IC50 [1] is on record?
Its IC50 is 1.6 µM.

For OC[C@H](O)[C@@H]1NC[C@H](O)[C@@H]1O, which IC50 [20] is on record?
Its IC50 is 52.8 µM.

For OC[C@H]1[C@H](O)[C@@H](O)[C@@H]2CS/C(=N/Cc3ccc(F)cc3)N12, which IC50 [1] is on record?
The IC50 was 1.8 µM.

For CCCCCCNC(=S)N1[C@@H](CO)[C@H](O)[C@@H](O)[C@@H]1CO, which inhibition (Penicillium decumbens) is on record?
Its inhibition is < 50%.

What about the inhibition (Prunus dulcis [2]) of the same molecule?
Its inhibition is < 50%.

And the inhibition (Bos taurus [3])?
The inhibition was < 50%.

What about the inhibition (Homo sapiens [23]) of the same molecule?
Its inhibition is < 50%.

And the inhibition (Aspergillus niger [5])?
Its inhibition is < 50%.

What about the inhibition (Oryza sativa [6]) of the same molecule?
Its inhibition is < 50%.

What about the inhibition (Rattus norvegicus [7]) of the same molecule?
Its inhibition is < 50%.

What about the IC50 (Beta-galactosidase) of the same molecule?
The IC50 was 572 µM.

What about the inhibition [9] of the same molecule?
Its inhibition is < 50%.

And the inhibition [10]?
Its inhibition is < 50%.

And the inhibition (Escherichia coli [11])?
Its inhibition is < 50%.

Which IC50 [20] does the source give for COc1ccc(C[C@@H]2NC[C@H](O)[C@H]2O)cc1 here?
Its IC50 is 3.7 µM.

— ChEMBL document CHEMBL3868599, “Strategy for designing selective α-l-rhamnosidase inhibitors: Synthesis and biological evaluation of l-DMDP cyclic isothioureas” (Bioorg Med Chem, 2017)
